{"source": "patent US12116636B2", "about": "“Methods for evaluating tumor cell spheroids using 3D microfluidic cell culture device” (Dana-Farber Cancer Institute, Inc., priority 2017, dated 2024)", "key": {"MC38 allograft": {"test_system": "MC38 allograft", "experiment": "In vivo Compound 1 combination treatment, allograft", "parameters": "species or system B6 mice", "conditions": "Cmpd1 + αPD-L1; not significant vs single-agent PD-L1"}, "MB49 allograft": {"test_system": "MB49 allograft", "experiment": "In vivo Compound 1 combination treatment, allograft", "parameters": "species or system B6 mice", "conditions": "Cmpd1 + αPD-L1"}, "CT26 allograft": {"test_system": "CT26 allograft", "experiment": "In vivo Compound 1 combination treatment, allograft", "parameters": "species or system Balb/c mice", "conditions": "Compound 1 40 mg/kg oral daily + anti-PD-L1 10 mg/kg every 5 days", "procedure": "Combination studies were performed by vivoPharm (Hummelstown, PA, USA). All procedures used in the performance of these studies were carried out in accordance with vivoPharm's Standard Operating Procedures, with particular reference to US_SOPvP_EF0314 “General Procedures for Efficacy Studies.” CT26 colon carcinoma cells (1×10^6 cells/mouse in 100 μL, passage 2-3) were re-suspended in serum-free DMEM and implanted in the upper right flank of 11-12 week old female Balb/c mice (Charles River Laboratories). Mice were randomized into four groups of 10 using a matched pair distribution method based on tumor size for CT26. Treatment was initiated 12 days post-inoculation with mean tumor volume at start of dosing of 125.85 mm^3. Vehicle or Compound 1 (40 mg/kg) was administered by oral gavage daily for 26 days and isotype control or a reverse chimera anti-PD-L1 cloned from literature reports (e.g., Deng, R. et al. MAbs (2016), the content of which is incorporated herein by reference in entirety) and placed into a mouse IgG1 framework (10 mg/kg) was administered every 5 days for a total of six doses. Investigators were not blinded to treatment groups. […] Mice were scarified on Day 13 and lung metastases were quantified (small≤1 mm, medium>1 mm and ≤3 mm, large>3 mm). No large lung metastases were detected."}, "B16F10 MDOTS": {"test_system": "B16F10 MDOTS", "experiment": "Bead-based cytokine profiling of MDOTS conditioned media", "type": "cell-based, murine", "conditions": "Cmpd1 1 μM ± αPD-1", "procedure": "Fresh tumor specimens (murine and human patients) were received in media (DMEM) on ice and minced in a 10 cm dish (on ice) using sterile forceps and scalpel. Minced tumor was resuspended in DMEM (4.5 mM glucose, […] sodium pyruvate, 1:100 penicillin-streptomycin) (Coming CellGro, Manassas, VA)+10% FBS (Gemini Bio-Products, West Sacramento, CA), 100 U/mL collagenase type IV (Life Technologies, Carlsbad, CA), and 15 mM HEPES (Life Technologies, Carlsbad, CA), except for CT26 tumors that were prepared in RPMI. Samples were pelleted and resuspended in 10-20 mL media. Red blood cells were removed from visibly bloody samples using RBC Lysis Buffer (Boston Bio-Products, Ashland, MA). […]\nTwo multiplex assays were performed utilizing a bead-based immunoassay approach, the Bio-Plex Pro™ Human Cytokine 40-plex Assay (Cat #171AK99MR2) and Bio-Plex Pro™ Mouse Cytokine Panel 1, 23-plex (Cat #M60009RDPD) on a Bio-plex 200 system (Cat #171000201). […] Fold changes relative to the MDOT/PDOT control were calculated and plotted as log 2FC. Lower and upper limits of quantitation (LLOQ/ULOQ) were imputed from standard curves for cytokines above or below detection. […]"}, "[1]": {"test_system": "human CD4+ and CD8+ T cells", "experiment": "IFNγ in supernatant of anti-CD3/anti-CD28 stimulated T cells", "type": "cell-based", "conditions": "dose-titration, 96 hours", "procedure": "Freshly isolated human CD4+ and CD8+ T cells were obtained from AllCells (Alameda, CA, USA). Cells were spun down and resuspended in serum free Xvivol5 media (Lonza Walkersville, Inc., Chicago, IL, USA) supplemented with 5 ng/mL […] and incubated overnight at 37° C. Cells were plated on anti-CD3 coated plates (5 μg/mL OKT3, eBioscience™, Dallas, TX, USA, overnight) with 2 μg/mL anti-CD28 (eBioscience™, Dallas, TX, USA). Cells are treated in replicate plates with a dose-titration of Compound 1 for 24 hours for IL-2 and 96 hours for IFNT. IL-2 and IFNγ in the supernatant were measured using single- or multi-plex immunoassay (Mesoscale Discovery, Rockville, MD, USA). Jurkat T cell leukemia cells (clone E61 obtained from ATCC) plated on anti-CD3 coated plates were treated with a dose titration of Compound 1 for 24 hours. IL-2 in the supernatant was measured as described above."}}}
{"smiles": "N#Cc1cc(-c2ncnc(Nc3ccc(N4CCN(C5COC5)CC4)cc3)n2)ccc1OC1CCOCC1", "note": "[Compound 1, 5-(4-((4-(4-(oxetan-3-yl)piperazin-1-yl)phenyl)amino)-1,3,5-triazin-2-yl)-2-((tetrahydro-2H-pyran-4-yl)oxy)benzonitrile]", "values": [{"measurement": "in vivo survival, MC38 model, combination treatment", "setting": "MC38 allograft", "result": "enhanced"}, {"measurement": "response to combination treatment in vivo, MB49 bladder carcinoma", "setting": "MB49 allograft", "result": "enhanced response"}, {"measurement": "survival, CT26 allograft, combination vs Cmpd1 or anti-PD-L1 alone", "setting": "CT26 allograft", "result": "longer survival"}, {"measurement": "tumour control, CT26 allograft, combination vs Cmpd1 or anti-PD-L1 alone", "setting": "CT26 allograft", "result": "greater tumour control"}, {"measurement": "G-CSF and related innate immune response cytokines in B16F10 MDOTS", "setting": "B16F10 MDOTS", "result": "without concomitant induction"}, {"measurement": "secretion of IFN-7 from purified CD4+ and CD8+ T cells", "setting": "[1]", "result": "enhanced secretion"}]}
